The source of these data is US20210381051A1, “DNA METHYLATION BIOMARKER OF AGING FOR HUMAN EX VIVO AND IN VIVO STUDIES” (The Regents of the University of California, priority 2018, published 2021).

Experiment [1] concerns neonatal dermal fibroblasts. Put plainly: Ex vivo epigenetic aging of fibroblasts by the skin & blood clock. Type of experiment: cell-based, human. To be noted: suggestive evidence. The text has this: (§1) FIG. 6. Ex vivo study of compounds that may accelerate or decelerate epigenetic aging. A) Effect of Y-27632 and rapamycin treatment on neonatal keratinocytes measured by the skin & blood clock. B) Effect of oestrogen on neonatal dermal fibroblasts.
(§2) By its ability to quantitatively track aging of human cells ex vivo, the skin & blood clock lends itself to be used in the development of an ex vivo human cell aging assay that can be used for testing and screening compounds with anti-aging or pro-aging effects.

Experiment [2] relates to progerin accumulation in HGPS cells. As to conditions: in vitro studies [41, 42]; cited from earlier work.
The test system of a further experiment is HGPS patients. To be noted: after 2.2 years of follow-up, 27% death in the matched untreated group; cited from earlier work.
For experiment [3], the system named is primary human keratinocytes from neonatal foreskins. Put plainly: Ex vivo human cell aging assay: DNAm age of cultured keratinocytes by the skin & blood clock. Type of experiment: cell-based.
Description: as §1, §2
Primary keratinocytes were isolated from human neonatal foreskins from three donors (Donor A, B and C) and were put in culture with standard media or media supplemented with rapamycin, Y-27632 or a cocktail of both of these compounds (methods). The cells were passaged continually and population doublings at each passage recorded. In time all cells, regardless of donor or treatment underwent replicative senescence, where they ceased to increase their numbers after at least 2 weeks in culture with regular replenishment of media. […] DNA methylation profiles from a selection of passages of these cells were obtained and analysed with the skin & blood clock. […]
(§3) Primary human neonatal fibroblasts were isolated from circumcised foreskins. […] Upon confluence, cells were trypsinised, counted and 100,000 were seeded into fresh fibronectin/collagen-coated plates. […]

The test system of experiment [4] is primary human keratinocytes. Put plainly: Keratinocyte proliferation rate and proliferative capacity (population doublings). Type of experiment: cell-based. As to conditions: rapamycin 25 nM, Y-27632 1 μM.
Description: The availability of an epigenetic clock, such as the skin & blood clock, which is applicable to cultured cells, allows epigenetic ageing to be studied beyond the purely descriptive nature afforded by epidemiological analyses alone. Towards this end, we have established in vitro epigenetic ageing systems using primary human cells. One of this is based on primary keratinocytes that are derived from healthy human skins. […] The opposing effects of these compounds on keratinocyte proliferation present us with the opportunity to test whether cellular proliferation rate impacts epigenetic ageing while carrying out our primary aim of interrogating the effects of rapamycin on epigenetic ageing.
Primary keratinocytes were isolated from human neonatal foreskins from three donors (Donor A, B and C) and were put in culture with standard media or media supplemented with rapamycin, Y-27632 or a cocktail of both of these compounds (methods). The cells were passaged continually and population doublings at each passage recorded. […] DNA methylation profiles from a selection of passages of these cells were obtained and analysed with the skin & blood clock. […]
as §3

As to estrogen, the “epigenetic aging (skin & blood clock), FIG. 6B” value in experiment [1] is “associated with slower epigenetic aging”.

Regarding `CN(C)C(=N)N=C(N)N` [metformin], the “progerin accumulation and cellular HGPS phenotypes” value in experiment [2] is listed as “reduction of progerin accumulation”.

On to `NC(=O)N1CCC(CC(=O)N2CCC([C@H]3c4ncc(Br)cc4CCc4cc(Cl)cc(Br)c43)CC2)CC1` [lonafarnib], for which the “death in the treated group” value in the experiment on HGPS patients is reported as 6.3%.

As for `C[C@@H](N)[C@H]1CC[C@H](C(=O)Nc2ccncc2)CC1` [Y-27632], in experiment [3] (Example 1, dividing / neonatal keratinocytes, suggestive evidence), the “epigenetic aging (skin & blood clock), FIG. 6A” value was “appears to increase epigenetic aging”. In addition, the “epigenetic ageing (skin & blood clock)” value in experiment [3] (Example 2, neonatal foreskin keratinocytes of three donors, CnT-07 medium, rapamycin 25 nM, Y-27632 1 μM, present for the entire duration) was “did not impose any appreciable effect”. Also, the “cellular proliferation rate (population doublings per unit of time)” value in experiment [4] was “increases it”.
